Common to all, as to test: biochemical
Design in all cases: DiscoverX KinomeScan competition binding assay across human kinases; per cent of control at 10 and 100 uM

One test deals with CDK3 (Homo sapiens, UniProt Q00526). The conditions noted are these: competition binding, % of control; read-out: Percent Control (100 uM Levosimendan). In outline: (§1)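 KinomeScan competition binding was run across a human kinase panel at 10 μM and 100 μM levosimendan. Results are %control = (test − positive control)/(negative control − positive control) × 100.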
The target in a further test is T1, VEGFR2 (Homo sapiens, UniProt P35968).
T1 construct: gene KDR
The settings on record: competition binding, % of control; read-out: Percent Control (100 uM Levosimendan). In outline:
as §1

The next test has as its target T2, LZK (Homo sapiens, UniProt O43283).
T2 construct: gene MAP3K13
The settings on record: competition binding, % of control; read-out: Percent Control (100 uM Levosimendan). A digest of the protocol: as §1

The next test addresses CLK1 (Homo sapiens, UniProt P49759). The settings on record: competition binding, % of control; read-out: Percent Control (100 uM Levosimendan). A digest of the protocol:
as §1

For a further test, the target named is GRK1 (Homo sapiens, UniProt Q15835). The settings on record: competition binding, % of control; read-out: Percent Control (100 uM Levosimendan). A digest of the protocol:
as §1

The next test has as its target NEK3 (Homo sapiens, UniProt P51956). The conditions noted are these: competition binding, % of control; read-out: Percent Control (100 uM Levosimendan). A digest of the protocol:
as §1

A further test has as its target FLT1 (Homo sapiens, UniProt P17948). The conditions noted are these: competition binding, % of control. A digest of the protocol: as §1
The target of a further test is RIPK1 (Homo sapiens, UniProt Q13546). The settings on record: competition binding, % of control; read-out: Percent Control (100 uM Levosimendan). A digest of the protocol:
as §1

For the next test, the target named is PIM3 (Homo sapiens, UniProt Q86V86). The conditions noted are these: competition binding, % of control. In outline:
as §1

The target of another test is PRKCD (Homo sapiens, UniProt Q05655). The conditions noted are these: competition binding, % of control. A digest of the protocol:
as §1

The target in a further test is MAP3K1 (Homo sapiens, UniProt Q13233). The conditions noted are these: competition binding, % of control; read-out: Percent Control (100 uM Levosimendan). In outline: as §1
The target of another test is BRAF(V600E) (Homo sapiens, UniProt P15056, V600E). The settings on record: competition binding, % of control; read-out: Percent Control (100 uM Levosimendan). In outline:
as §1

Another test has as its target ANKK1 (Homo sapiens, UniProt Q8NFD2). The conditions noted are these: competition binding, % of control; read-out: Percent Control (100 uM Levosimendan). In outline:
as §1

The target of a further test is WNK2 (Homo sapiens, UniProt Q9Y3S1). The conditions noted are these: competition binding, % of control; read-out: Percent Control (100 uM Levosimendan). In outline:
as §1

For the next test, the target named is T3, PKAC-beta (Homo sapiens, UniProt P22694).
T3 construct: gene PRKACB
The settings on record: competition binding, % of control; read-out: Percent Control (100 uM Levosimendan). A digest of the protocol: as §1

The target of the next test is T4, PYK2 (Homo sapiens, UniProt Q14289).
T4 construct: gene PTK2B
The conditions noted are these: competition binding, % of control; read-out: Percent Control (100 uM Levosimendan). A digest of the protocol: as §1

Another test has as its target T5, MEK3 (Homo sapiens, UniProt P46734).
T5 construct: gene MAP2K3
The settings on record: competition binding, % of control; read-out: Percent Control (100 uM Levosimendan). A digest of the protocol:
as §1

In another test the target is EGFR(L861Q) (Homo sapiens, UniProt P00533, L861Q). The conditions noted are these: competition binding, % of control; read-out: Percent Control (100 uM Levosimendan). A digest of the protocol:
as §1

The next test concerns the target DDR1 (Homo sapiens, UniProt Q08345). The settings on record: competition binding, % of control; read-out: Percent Control (100 uM Levosimendan). A digest of the protocol:
as §1

The mark [1] stands for this setting: read-out: Percent Control (10 uM Levosimendan).
Where [2] appears, read: read-out: Percent Control (100 uM Levosimendan).

The text below walks through data of paper PMC6576746, “Rational discovery of dual-indication multi-target PDE/Kinase inhibitor for precision anti-cancer therapy using structural systems pharmacology” (PLoS Computational Biology, 2019).

FLT1, sequence (P17948 whole entry): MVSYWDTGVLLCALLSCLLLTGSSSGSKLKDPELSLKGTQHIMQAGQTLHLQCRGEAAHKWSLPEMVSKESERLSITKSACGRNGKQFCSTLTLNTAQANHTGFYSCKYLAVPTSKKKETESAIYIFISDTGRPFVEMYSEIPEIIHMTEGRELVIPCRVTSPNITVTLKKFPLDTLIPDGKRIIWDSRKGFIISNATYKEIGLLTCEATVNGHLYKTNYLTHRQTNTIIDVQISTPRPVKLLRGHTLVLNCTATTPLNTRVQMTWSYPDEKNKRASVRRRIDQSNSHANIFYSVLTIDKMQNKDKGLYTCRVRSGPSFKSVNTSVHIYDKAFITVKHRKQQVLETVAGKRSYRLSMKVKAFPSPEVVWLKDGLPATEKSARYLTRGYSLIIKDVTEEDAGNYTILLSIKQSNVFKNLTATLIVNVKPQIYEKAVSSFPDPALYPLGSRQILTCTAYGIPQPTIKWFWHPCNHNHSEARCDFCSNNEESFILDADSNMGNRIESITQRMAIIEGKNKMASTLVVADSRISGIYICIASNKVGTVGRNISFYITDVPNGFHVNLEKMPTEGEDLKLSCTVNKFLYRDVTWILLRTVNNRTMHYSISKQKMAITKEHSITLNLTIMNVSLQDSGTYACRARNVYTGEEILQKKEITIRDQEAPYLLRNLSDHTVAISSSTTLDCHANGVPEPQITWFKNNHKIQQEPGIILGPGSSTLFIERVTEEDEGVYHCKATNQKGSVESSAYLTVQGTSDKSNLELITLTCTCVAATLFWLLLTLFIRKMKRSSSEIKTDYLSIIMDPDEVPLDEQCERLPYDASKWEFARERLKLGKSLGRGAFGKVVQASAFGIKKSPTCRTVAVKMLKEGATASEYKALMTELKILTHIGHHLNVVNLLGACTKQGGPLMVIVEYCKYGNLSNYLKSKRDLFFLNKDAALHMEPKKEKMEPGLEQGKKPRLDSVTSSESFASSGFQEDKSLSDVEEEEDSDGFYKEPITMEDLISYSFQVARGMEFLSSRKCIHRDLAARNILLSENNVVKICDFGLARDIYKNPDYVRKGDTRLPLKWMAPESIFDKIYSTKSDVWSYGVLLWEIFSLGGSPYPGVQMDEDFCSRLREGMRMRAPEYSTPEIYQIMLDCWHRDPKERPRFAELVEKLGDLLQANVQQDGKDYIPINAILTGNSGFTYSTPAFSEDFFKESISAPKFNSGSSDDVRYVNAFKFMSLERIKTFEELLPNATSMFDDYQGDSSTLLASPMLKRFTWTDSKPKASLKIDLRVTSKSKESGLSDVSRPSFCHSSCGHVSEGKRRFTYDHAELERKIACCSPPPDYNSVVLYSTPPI
PRKCD, sequence (Q05655 whole entry): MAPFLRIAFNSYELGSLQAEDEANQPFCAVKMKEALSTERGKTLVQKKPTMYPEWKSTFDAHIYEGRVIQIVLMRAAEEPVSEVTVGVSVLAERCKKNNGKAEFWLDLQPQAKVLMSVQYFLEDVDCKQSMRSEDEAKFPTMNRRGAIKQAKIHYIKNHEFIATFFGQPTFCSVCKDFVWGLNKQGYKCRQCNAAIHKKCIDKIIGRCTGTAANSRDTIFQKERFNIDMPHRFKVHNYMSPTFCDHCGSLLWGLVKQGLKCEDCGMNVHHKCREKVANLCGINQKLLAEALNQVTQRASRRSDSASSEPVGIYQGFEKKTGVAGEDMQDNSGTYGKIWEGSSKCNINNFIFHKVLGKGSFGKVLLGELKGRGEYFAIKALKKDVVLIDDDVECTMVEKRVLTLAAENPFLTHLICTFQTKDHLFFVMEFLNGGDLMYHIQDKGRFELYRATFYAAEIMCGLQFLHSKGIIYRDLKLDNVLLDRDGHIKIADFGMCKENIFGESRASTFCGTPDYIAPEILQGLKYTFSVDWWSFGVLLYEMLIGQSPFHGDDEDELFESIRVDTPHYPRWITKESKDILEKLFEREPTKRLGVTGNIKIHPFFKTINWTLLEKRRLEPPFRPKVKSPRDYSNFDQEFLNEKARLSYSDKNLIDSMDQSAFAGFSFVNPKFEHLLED
DDR1, sequence (Q08345 whole entry): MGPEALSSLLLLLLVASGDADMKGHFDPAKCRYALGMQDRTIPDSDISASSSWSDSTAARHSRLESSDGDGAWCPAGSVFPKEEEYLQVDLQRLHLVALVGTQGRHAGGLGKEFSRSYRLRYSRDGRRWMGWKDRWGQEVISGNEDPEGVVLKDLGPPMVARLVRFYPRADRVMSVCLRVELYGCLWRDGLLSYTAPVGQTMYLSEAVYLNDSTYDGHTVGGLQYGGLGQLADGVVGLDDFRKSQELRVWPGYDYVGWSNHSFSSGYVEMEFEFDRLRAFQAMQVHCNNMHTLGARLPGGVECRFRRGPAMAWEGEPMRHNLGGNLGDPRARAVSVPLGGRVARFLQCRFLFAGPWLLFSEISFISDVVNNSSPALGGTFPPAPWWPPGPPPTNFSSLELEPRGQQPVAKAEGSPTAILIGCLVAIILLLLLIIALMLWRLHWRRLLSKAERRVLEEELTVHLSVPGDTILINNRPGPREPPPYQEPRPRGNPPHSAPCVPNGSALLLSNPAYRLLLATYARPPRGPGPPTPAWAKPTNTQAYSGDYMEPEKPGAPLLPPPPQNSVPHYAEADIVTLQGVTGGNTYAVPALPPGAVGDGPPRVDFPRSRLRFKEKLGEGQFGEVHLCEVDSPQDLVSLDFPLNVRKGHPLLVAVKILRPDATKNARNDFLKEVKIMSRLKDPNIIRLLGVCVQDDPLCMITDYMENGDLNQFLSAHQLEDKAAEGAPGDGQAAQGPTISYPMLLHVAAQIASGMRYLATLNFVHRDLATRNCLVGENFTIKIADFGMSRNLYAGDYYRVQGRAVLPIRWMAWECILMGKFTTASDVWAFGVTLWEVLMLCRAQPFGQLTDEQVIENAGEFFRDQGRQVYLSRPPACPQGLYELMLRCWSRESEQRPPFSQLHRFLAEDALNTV
RIPK1, sequence (Q13546 whole entry): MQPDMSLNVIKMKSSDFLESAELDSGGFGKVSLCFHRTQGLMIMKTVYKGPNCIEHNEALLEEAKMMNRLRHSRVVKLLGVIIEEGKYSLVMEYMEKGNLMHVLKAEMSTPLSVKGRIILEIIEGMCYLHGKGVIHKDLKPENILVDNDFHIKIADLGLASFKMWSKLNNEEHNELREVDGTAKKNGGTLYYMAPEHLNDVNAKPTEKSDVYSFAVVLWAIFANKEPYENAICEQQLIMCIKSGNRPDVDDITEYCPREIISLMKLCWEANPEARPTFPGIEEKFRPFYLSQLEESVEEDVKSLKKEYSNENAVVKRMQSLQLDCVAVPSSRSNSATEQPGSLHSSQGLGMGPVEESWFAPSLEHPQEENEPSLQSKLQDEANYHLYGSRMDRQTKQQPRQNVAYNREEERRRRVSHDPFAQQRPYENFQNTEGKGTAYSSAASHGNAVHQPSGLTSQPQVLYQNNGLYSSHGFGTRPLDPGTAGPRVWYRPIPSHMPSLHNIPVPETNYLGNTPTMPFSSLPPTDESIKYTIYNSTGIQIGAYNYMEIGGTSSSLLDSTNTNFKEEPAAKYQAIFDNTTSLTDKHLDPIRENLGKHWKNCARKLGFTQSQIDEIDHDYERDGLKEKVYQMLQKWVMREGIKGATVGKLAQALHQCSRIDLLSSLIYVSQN
ANKK1, sequence (Q8NFD2 whole entry): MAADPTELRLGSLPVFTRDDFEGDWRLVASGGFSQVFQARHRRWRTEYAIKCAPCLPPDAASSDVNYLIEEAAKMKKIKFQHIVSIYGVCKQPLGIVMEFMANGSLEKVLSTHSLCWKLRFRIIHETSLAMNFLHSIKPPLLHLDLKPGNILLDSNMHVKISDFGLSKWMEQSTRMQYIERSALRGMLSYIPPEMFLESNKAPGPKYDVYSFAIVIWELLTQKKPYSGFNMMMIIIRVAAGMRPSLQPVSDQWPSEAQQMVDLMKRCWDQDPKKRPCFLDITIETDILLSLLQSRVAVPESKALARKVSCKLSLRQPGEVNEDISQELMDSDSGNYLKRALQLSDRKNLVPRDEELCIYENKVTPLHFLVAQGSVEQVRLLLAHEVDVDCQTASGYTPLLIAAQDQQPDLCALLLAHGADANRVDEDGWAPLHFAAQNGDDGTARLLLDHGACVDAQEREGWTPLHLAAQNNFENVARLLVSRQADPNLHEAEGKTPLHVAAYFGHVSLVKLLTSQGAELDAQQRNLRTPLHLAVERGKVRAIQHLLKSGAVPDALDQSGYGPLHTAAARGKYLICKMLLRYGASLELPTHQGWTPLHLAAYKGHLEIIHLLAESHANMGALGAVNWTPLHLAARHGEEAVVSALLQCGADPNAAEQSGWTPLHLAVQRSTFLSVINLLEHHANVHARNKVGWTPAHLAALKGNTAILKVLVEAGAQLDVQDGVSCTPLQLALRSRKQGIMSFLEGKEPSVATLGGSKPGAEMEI
CDK3, sequence (Q00526 whole entry): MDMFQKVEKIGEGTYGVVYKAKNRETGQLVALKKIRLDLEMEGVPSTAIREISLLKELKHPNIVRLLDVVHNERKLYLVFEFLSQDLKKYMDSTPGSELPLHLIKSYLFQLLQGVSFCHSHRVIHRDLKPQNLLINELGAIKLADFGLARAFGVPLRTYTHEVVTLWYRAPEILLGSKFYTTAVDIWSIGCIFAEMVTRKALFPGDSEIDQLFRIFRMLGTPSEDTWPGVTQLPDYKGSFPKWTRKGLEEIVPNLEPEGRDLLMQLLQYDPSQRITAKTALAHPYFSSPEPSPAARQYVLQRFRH

With `C[C@@H]1CC(=O)NN=C1c1ccc(NN=C(C#N)C#N)cc1` [levosimendan], the remaining binding at 100 µM worked out at 100% on CDK3; 100% at VEGFR2; 100% on LZK; 89% at CLK1; 67% at GRK1; 78% at NEK3. For the same compound, the remaining binding at 100 µM amounted to 44% on FLT1 (setting [2]); 73% on RIPK1; 17% at PIM3 (setting [2]); 48% on PRKCD (setting [2]); 100% on MAP3K1; 78% at BRAF(V600E). Besides, the remaining binding at 100 µM turned out to be 77% on ANKK1; 98% on WNK2; 64% at PKAC-beta; 93% at PYK2; 57% on MEK3; 71% at EGFR(L861Q). The remaining binding at 100 µM at DDR1 came out at 84%. The values for the remaining binding at 10 µM at FLT1 (setting [1]), on PIM3 (setting [1]) and at PRKCD (setting [1]) were 98%, 75% and 93%, respectively.
